From ChEMBL document CHEMBL1817600, “Design, synthesis, and biological evaluation of imidazoline derivatives as p53-MDM2 binding inhibitors” (Bioorg Med Chem, 2011)
One block for each compound: values may come before it.

Tests used:
[1] = system: HCT-116; experiment: Antiproliferative activity against human HCT116 cells expressing wild type p53 after 72 hrs by MTT assay
[2] = system: KB; experiment: Antiproliferative activity against human KB cells expressing p53 mutant after 72 hrs by MTT assay; assay type: functional, cell-based
[3] = system: PC-3; experiment: Antiproliferative activity against p53 deficient human PC3 cells after 72 hrs by MTT assay; conditions: PC-3, 72 h
[4] = system: A549; experiment: Cell cycle arrest in human A549 cells expressing wild type p53 assessed as accumulation at G2/M phase at 10 uM after 72 hrs using propidium iodide staining by flow cytometric analysis (reference value: 7.49%); assay type: functional
[5] = system: A549; experiment: Antiproliferative activity against human A549 cells expressing wild type p53 after 72 hrs by MTT assay; conditions: A549, 72 h
[6] = system: A549; experiment: Cell cycle arrest in human A549 cells expressing wild type p53 assessed as accumulation at G0/G1 phase at 10 uM after 72 hrs using propidium iodide staining by flow cytometric analysis (reference value: 73.28%); assay type: functional
[7] = system: A549; experiment: Cell cycle arrest in human A549 cells expressing wild type p53 assessed as accumulation at S phase at 10 uM after 72 hrs using propidium iodide staining by flow cytometric analysis (reference value: 19.23%); assay type: functional
[8] = molecular target: Tumour suppressor p53/oncoprotein Mdm2 (Homo sapiens, UniProt Q00987); experiment: (§1) Inhibition of p53-MDM2 expressed in Escherichia coli BL-21 (DE3) after 1 hr by fluorescence polarization competitive binding assay
Chain of Tumour suppressor p53/oncoprotein Mdm2 (Homo sapiens, UniProt Q00987) (P04637 whole entry): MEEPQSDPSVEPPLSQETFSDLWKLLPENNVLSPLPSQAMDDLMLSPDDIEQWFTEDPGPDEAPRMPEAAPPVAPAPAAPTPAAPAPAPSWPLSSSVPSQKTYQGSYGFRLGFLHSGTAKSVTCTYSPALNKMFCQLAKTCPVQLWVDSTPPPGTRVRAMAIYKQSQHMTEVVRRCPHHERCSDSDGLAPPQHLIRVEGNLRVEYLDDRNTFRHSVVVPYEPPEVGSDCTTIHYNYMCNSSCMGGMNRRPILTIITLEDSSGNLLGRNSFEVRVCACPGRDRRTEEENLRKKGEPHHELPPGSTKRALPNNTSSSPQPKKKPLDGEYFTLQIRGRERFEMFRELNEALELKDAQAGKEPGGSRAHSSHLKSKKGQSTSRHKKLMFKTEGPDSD
Chain of Tumour suppressor p53/oncoprotein Mdm2 (Homo sapiens, UniProt Q00987) (Q00987 whole entry): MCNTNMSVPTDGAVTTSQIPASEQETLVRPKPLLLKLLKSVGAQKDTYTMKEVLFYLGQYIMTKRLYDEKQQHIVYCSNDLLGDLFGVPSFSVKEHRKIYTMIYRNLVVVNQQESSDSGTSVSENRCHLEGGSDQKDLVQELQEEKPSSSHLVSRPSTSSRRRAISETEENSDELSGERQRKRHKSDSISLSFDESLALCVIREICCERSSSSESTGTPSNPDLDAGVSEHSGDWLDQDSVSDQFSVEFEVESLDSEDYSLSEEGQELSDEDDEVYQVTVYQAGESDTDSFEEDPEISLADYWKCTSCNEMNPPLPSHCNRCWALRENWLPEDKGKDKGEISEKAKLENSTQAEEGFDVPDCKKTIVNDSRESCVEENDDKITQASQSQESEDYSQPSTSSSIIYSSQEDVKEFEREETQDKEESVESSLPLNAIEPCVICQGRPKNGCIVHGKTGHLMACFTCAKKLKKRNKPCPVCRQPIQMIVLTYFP

[9] = molecular target: Tumour suppressor p53/oncoprotein Mdm2 (Homo sapiens, UniProt P04637+Q00987); experiment: as §1
Chain of Tumour suppressor p53/oncoprotein Mdm2 (Homo sapiens, UniProt P04637+Q00987) (P04637 whole entry): as the sequence (P04637 whole entry) above
Chain of Tumour suppressor p53/oncoprotein Mdm2 (Homo sapiens, UniProt P04637+Q00987) (Q00987 whole entry): as the sequence (Q00987 whole entry) above

Compound: COc1ccc(C2=NC(c3ccc(Cl)cc3)C(c3ccc(Cl)cc3)N2C(=O)N2CCN(C(C)=O)CC2)c(OC(C)C)c1 (configuration not stated)
IC50 ([1]; Homo sapiens, HCT-116, 72 h): 4.58 µM
IC50 [2]: 35.2 µM
IC50 [3]: 29.2 µM
Activity [4]: 19.27%
IC50 [5]: 2.33 µM
Activity [6]: 66.95%
Activity [7]: 13.78%

Compound: COc1ccc(C2=NC(c3ccc(Cl)cc3)C(c3ccc(Cl)cc3)N2C(=O)OCc2ccccc2)c(OC(C)C)c1 (configuration not stated)
Ki [8]: 32.4 µM

Compound: COc1ccc(C2=NC(c3ccc(Cl)cc3)C(c3ccc(Cl)cc3)N2C(=O)NCC(=O)N2CCOCC2)c(OC(C)C)c1 (configuration not stated)
IC50 ([1]; Homo sapiens, HCT-116, 72 h): 10.9 µM
IC50 [2]: 7.39 µM
IC50 [3]: 14.3 µM
Ki [8]: 0.48 µM
IC50 [5]: 8.29 µM

Compound: COc1ccc(C2=NC(c3ccc(Cl)cc3)C(c3ccc(Cl)cc3)N2C(=O)N2CCOCC2)c(OC(C)C)c1 (configuration not stated)
Ki [8]: 4.07 µM

Compound: COc1ccc(C2=NC(c3ccc(Cl)cc3)C(c3ccc(Cl)cc3)N2C(=O)N2CCC(C(=O)O)CC2)c(OC(C)C)c1 (configuration not stated)
Ki [8]: 8.77 µM

Compound: COc1ccc(C2=NC(c3ccc(C(F)(F)F)cc3)C(c3ccc(C(F)(F)F)cc3)N2C(=O)N2CCN(C(C)=O)CC2)c(OC(C)C)c1 (configuration not stated)
Ki [9]: Not Active

Compound: COc1ccc(C2=NC(c3ccccc3)C(c3ccccc3)N2C(=O)CN2CCN(C)CC2)c(OC(C)C)c1 (configuration not stated)
Ki [9]: Not Active

Compound: CCN(CC)CC(=O)N1C(c2ccc(OC)cc2OC(C)C)=NC(c2ccccc2)C1c1ccccc1 (configuration not stated)
Ki [9]: Not Active

Compound: COc1ccc(C2=NC(c3ccc(Cl)cc3)C(c3ccc(Cl)cc3)N2C(=O)CN2CCOCC2)c(OC(C)C)c1 (configuration not stated)
Ki [8]: 2.64 µM

Compound: COc1ccc(C2=NC(c3ccc(Cl)cc3)C(c3ccc(Cl)cc3)N2C(=O)CN2CCN(C)CC2)c(OC(C)C)c1 (configuration not stated)
Ki [8]: 25.8 µM

Compound: COc1ccc(C2=NC(c3ccc(Cl)cc3)C(c3ccc(Cl)cc3)N2C(=O)CN2CCCCC2)c(OC(C)C)c1 (configuration not stated)
Ki [8]: 82.1 µM

Compound: COc1ccc(C2=NC(c3ccc(Cl)cc3)C(c3ccc(Cl)cc3)N2C(=O)CCN2CCN(C)CC2)c(OC(C)C)c1 (configuration not stated)
IC50 ([1]; Homo sapiens, HCT-116, 72 h): 5.4 µM
IC50 [2]: 5.81 µM
IC50 [3]: 8.44 µM
Ki [8]: 0.9 µM
IC50 [5]: 3.19 µM

Compound: COc1ccc(C2=NC(c3ccc(Cl)cc3)C(c3ccc(Cl)cc3)N2C(=O)CCN2CCOCC2)c(OC(C)C)c1 (configuration not stated)
IC50 ([1]; Homo sapiens, HCT-116, 72 h): 7.57 µM
IC50 [3]: 2.74 µM
Ki [8]: 1.3 µM
IC50 [5]: 3.82 µM

Compound: COc1ccc(C2=NC(c3ccc(C(F)(F)F)cc3)C(c3ccc(C(F)(F)F)cc3)N2C(=O)CN2CCN(C(C)=O)CC2)c(OC(C)C)c1 (configuration not stated)
Ki [9]: Not Active

Now from value to compound, other results behind:

Ki [8]: 2.3 µM
Compound: COCCOC(=O)N1C(c2ccc(OC)cc2OC(C)C)=NC(c2ccc(Cl)cc2)C1c1ccc(Cl)cc1 (configuration not stated)

IC50 ([1]; Homo sapiens, HCT-116, 72 h): 5.81 µM
IC50 [2]: 3.6 µM
IC50 [3]: 33.1 µM
Ki [8]: 0.6 µM
IC50 [5]: 9.1 µM
Compound: COc1ccc(C2=NC(c3ccc(Cl)cc3)C(c3ccc(Cl)cc3)N2C(=O)OCCNC(C)=O)c(OC(C)C)c1 (configuration not stated)
Activity [4]: 30.93%
Activity [6]: 61.67%
Activity [7]: 7.4%

Ki [8]: 1.38 µM
Compound: CCOCCOC(=O)N1C(c2ccc(OC)cc2OC(C)C)=NC(c2ccc(Cl)cc2)C1c1ccc(Cl)cc1 (configuration not stated)

IC50 ([1]; hct-116): Not Active
IC50 [2]: 8.27 µM
IC50 [3]: 11 µM
Ki [8]: 0.57 µM
IC50 [5]: 10.8 µM
Compound: COc1ccc(C2=NC(c3ccc(Cl)cc3)C(c3ccc(Cl)cc3)N2C(=O)OCCN(C)C)c(OC(C)C)c1 (configuration not stated)

Ki [8]: 1.59 µM
Compound: CCOC(=O)CN(C)C(=O)N1C(c2ccc(OC)cc2OC(C)C)=NC(c2ccc(Cl)cc2)C1c1ccc(Cl)cc1 (configuration not stated)

Ki [8]: 3.32 µM
Compound: COc1ccc(C2=NC(c3ccc(Cl)cc3)C(c3ccc(Cl)cc3)N2C(=O)N(C)C)c(OC(C)C)c1 (configuration not stated)

Ki [9]: Not Active
Compound: CCC1=NC(c2ccc(Cl)cc2)C(c2ccc(Cl)cc2)N1C(=O)N1CCN(C)CC1 (configuration not stated)

Ki [9]: Not Active
Compound: CCC1=NC(c2ccc(Cl)cc2)C(c2ccc(Cl)cc2)N1C(=O)N(CC)CC (configuration not stated)

Ki [9]: Not Active
Compound: CCC1=NC(c2ccc(Cl)cc2)C(c2ccc(Cl)cc2)N1C(=O)Nc1ccc(N2CCCC2)cc1 (configuration not stated)

Ki [9]: Not Active
Compound: CCC1=NC(c2ccc(Cl)cc2)C(c2ccc(Cl)cc2)N1C(=O)NCC(=O)N1CCOCC1 (configuration not stated)

Ki [9]: Not Active
Compound: CCN(CC)CC(=O)N1C(c2ccc(OC)cc2OC(C)C)=NC(c2ccc(Cl)cc2)C1c1ccc(Cl)cc1 (configuration not stated)

IC50 ([1]; Homo sapiens, HCT-116, 72 h): 3.73 µM
IC50 [3]: 3.32 µM
Ki [8]: 1.22 µM
IC50 [5]: 3.82 µM
Compound: CCN(CC)CCC(=O)N1C(c2ccc(OC)cc2OC(C)C)=NC(c2ccc(Cl)cc2)C1c1ccc(Cl)cc1 (configuration not stated)
